Assay results published in ChEMBL document CHEMBL1201862, “PubChem BioAssay data set” (2004).
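Assay format: 96-well plates, 48-hour exposure. The concentration for 50% growth inhibition is given as GI50.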 Activity calls are given as the source filed them. Cut-off read from the data, not from the text of the source: active = GI50 up to about 1.1 µM and inactive = higher.

Columns and labels:
Test in all cases: NCI tumour cell line growth inhibition, 48 h
Hs-578T = tested on: Hs-578T
SK-MEL-5 = tested on: SK-MEL-5
SK-MEL-2 = tested on: SK-MEL-2
UACC-62 = tested on: UACC-62
SW-620 = tested on: SW-620
MDA-N = tested on: MDA-N
TK-10 = tested on: TK-10
HOP-92 = tested on: HOP-92
SK-MEL-28 = tested on: SK-MEL-28
RPMI-8226 = tested on: RPMI-8226
SN12C = tested on: SN12C
BT-549 = tested on: BT-549
MOLT-4 = tested on: MOLT-4
Malme-3M = tested on: Malme-3M
MDA-MB-231 = tested on: MDA-MB-231
M14 = tested on: M14
CCRF-CEM = tested on: CCRF-CEM
OVCAR-5 = tested on: OVCAR-5
NCI-H23 = tested on: NCI-H23
SK-OV-3 = tested on: SK-OV-3
OVCAR-8 = tested on: OVCAR-8
UO-31 = tested on: UO-31
OVCAR-4 = tested on: OVCAR-4
COLO 205 = tested on: COLO 205
IGROV-1 = tested on: IGROV-1
LOX IMVI = tested on: LOX IMVI
MDA-MB-435 = tested on: MDA-MB-435
KM12 = tested on: KM12
NCI-H460 = tested on: NCI-H460
EKVX = tested on: EKVX
MCF7 = tested on: MCF7
OVCAR-3 = tested on: OVCAR-3
DU-145 = tested on: DU-145
SR = tested on: SR
NCI-H522 = tested on: NCI-H522
SF-539 = tested on: SF-539
ACHN = tested on: ACHN
NCI-H226 = tested on: NCI-H226
CAKI-1 = tested on: CAKI-1
HL-60 = tested on: HL-60
HT-29 = tested on: HT-29
A498 = tested on: A498
HCT-116 = tested on: HCT-116
786-0 = tested on: 786-0
PC-3 = tested on: PC-3
HCC 2998 = tested on: HCC 2998
NCI/ADR-RES = tested on: NCI/ADR-RES
U-251 = tested on: U-251
A549 = tested on: A549
UACC-257 = tested on: UACC-257
HCT-15 = tested on: HCT-15
HOP-62 = tested on: HOP-62
SF-268 = tested on: SF-268
SNB-19 = tested on: SNB-19
K562 = tested on: K562
RXF 393 = tested on: RXF 393
SF-295 = tested on: SF-295
SNB-75 = tested on: SNB-75

Structure (SMILES): CC(C)(C)C1CCC2c3c([nH]c4ccccc34)C3C(=O)N(c4cc(Br)cc(Br)c4)C(=O)C3C2C1 (stereo unspecified)
- GI50 (Hs-578T): 7 µM (inactive)
- GI50 (SK-MEL-5): 24.2 µM (inactive)
- GI50 (SK-MEL-2): 26.7 µM (inactive)
- GI50 (UACC-62): 25.1 µM (inactive)
- GI50 (SW-620): 51.2 µM (inactive)
- GI50 (MDA-N): 31.9 µM (inactive)
- GI50 (TK-10): 19.9 µM (inactive)
- GI50 (HOP-92): 2.63 µM (inactive)
- GI50 (SK-MEL-28): 13.2 µM (inactive)
- GI50 (RPMI-8226): 36.4 µM (inactive)
- GI50 (SN12C): 6.82 µM (inactive)
- GI50 (BT-549): 33.9 µM (inactive)
- GI50 (MOLT-4): 5.26 µM (inactive)
- GI50 (Malme-3M): 57.9 µM (inactive)
- GI50 (MDA-MB-231): 27 µM (inactive)
- GI50 (M14): 25.4 µM (inactive)
- GI50 (CCRF-CEM): 5.79 µM (inactive)
- GI50 (OVCAR-5): 31.6 µM (inactive)
- GI50 (NCI-H23): 15.9 µM (inactive)
- GI50 (SK-OV-3): 61.1 µM (inactive)
- GI50 (OVCAR-8): 16 µM (inactive)
- GI50 (UO-31): 6.97 µM (inactive)
- GI50 (OVCAR-4): 10.1 µM (inactive)
- GI50 (COLO 205): 19.6 µM (inactive)
- GI50 (IGROV-1): 70.3 µM (inactive)
- GI50 (LOX IMVI): 27.2 µM (inactive)
- GI50 (MDA-MB-435): 19.7 µM (inactive)
- GI50 (KM12): 12.6 µM (inactive)
- GI50 (NCI-H460): 6.43 µM (inactive)
- GI50 (EKVX): 6.58 µM (inactive)
- GI50 (MCF7): 3.2 µM (inactive)
- GI50 (OVCAR-3): > 10 µM (inactive)
- GI50 (DU-145): 21.4 µM (inactive)
- GI50 (SR): 7.89 µM (inactive)
- GI50 (NCI-H522): 20.9 µM (inactive)
- GI50 (SF-539): 16.7 µM (inactive)
- GI50 (ACHN): 20 µM (inactive)
- GI50 (NCI-H226): 21.9 µM (inactive)
- GI50 (CAKI-1): 13.7 µM (inactive)
- GI50 (HL-60): 2.55 µM (inactive)
- GI50 (HT-29): 9.89 µM (inactive)
- GI50 (A498): 19.7 µM (inactive)
- GI50 (HCT-116): 4.34 µM (inactive)
- GI50 (786-0): 6.95 µM (inactive)
- GI50 (PC-3): 9.95 µM (inactive)
- GI50 (HCC 2998): 5.05 µM (inactive)
- GI50 (NCI/ADR-RES): 14.6 µM (inactive)
- GI50 (U-251): 13.4 µM (inactive)
- GI50 (A549): 14.8 µM (inactive)
- GI50 (UACC-257): > 100 µM (inactive)
- GI50 (HCT-15): 25.4 µM
- GI50 (HOP-62): 18.7 µM (inactive)

Structure (SMILES): CC(C)C1N(C)c2ccc(Cl)cc2[C@H]2c3ccccc3CCN12 (stereo partly specified)
- GI50 (Hs-578T): 25.8 µM (inactive)
- GI50 (SK-MEL-2): 25.9 µM (inactive)
- GI50 (UACC-62): 25.4 µM (inactive)
- GI50 (SW-620): 97.3 µM (inactive)
- GI50 (SF-268): > 100 µM (inactive)
- GI50 (MDA-N): 26.1 µM (inactive)
- GI50 (TK-10): 89.9 µM (inactive)
- GI50 (HOP-92): 24.9 µM (inactive)
- GI50 (SK-MEL-28): 54.8 µM (inactive)
- GI50 (RPMI-8226): 18.7 µM (inactive)
- GI50 (SN12C): 45.2 µM (inactive)
- GI50 (BT-549): > 100 µM (inactive)
- GI50 (MOLT-4): 37.8 µM (inactive)
- GI50 (MDA-MB-231): 24.4 µM (inactive)
- GI50 (M14): 55.1 µM (inactive)
- GI50 (CCRF-CEM): 97.9 µM (inactive)
- GI50 (OVCAR-5): 38.3 µM (inactive)
- GI50 (NCI-H23): > 100 µM (inactive)
- GI50 (SK-OV-3): > 100 µM (inactive)
- GI50 (OVCAR-8): > 100 µM (inactive)
- GI50 (UO-31): 98.4 µM (inactive)
- GI50 (SNB-19): > 100 µM (inactive)
- GI50 (OVCAR-4): 69.2 µM (inactive)
- GI50 (COLO 205): 36.4 µM (inactive)
- GI50 (IGROV-1): 23.4 µM (inactive)
- GI50 (LOX IMVI): 31.6 µM (inactive)
- GI50 (MDA-MB-435): 23 µM (inactive)
- GI50 (KM12): 50.9 µM (inactive)
- GI50 (NCI-H460): 94.8 µM (inactive)
- GI50 (EKVX): 28 µM (inactive)
- GI50 (MCF7): 30.7 µM (inactive)
- GI50 (K562): 71.8 µM (inactive)
- GI50 (OVCAR-3): 27.2 µM (inactive)
- GI50 (DU-145): 53.5 µM (inactive)
- GI50 (SR): 29.9 µM (inactive)
- GI50 (NCI-H522): 21.9 µM (inactive)
- GI50 (SF-539): > 100 µM (inactive)
- GI50 (ACHN): 82.2 µM (inactive)
- GI50 (NCI-H226): 14.3 µM (inactive)
- GI50 (HL-60): 27.7 µM (inactive)
- GI50 (HT-29): 22.1 µM (inactive)
- GI50 (A498): 78 µM (inactive)
- GI50 (RXF 393): 47.5 µM (inactive)
- GI50 (HCT-116): 40.2 µM (inactive)
- GI50 (SF-295): 18.2 µM (inactive)
- GI50 (786-0): > 100 µM (inactive)
- GI50 (SNB-75): 61.8 µM (inactive)
- GI50 (PC-3): 62.4 µM (inactive)
- GI50 (NCI/ADR-RES): > 100 µM (inactive)
- GI50 (U-251): 61.5 µM (inactive)
- GI50 (A549): 39 µM (inactive)
- GI50 (UACC-257): 30.4 µM (inactive)
- GI50 (HCT-15): 37.1 µM
- GI50 (HOP-62): > 100 µM (inactive)
